One data set concerns the target T1, ETA receptors (Rattus norvegicus, UniProt P26684).
T1 construct: The thoracic aorta or trachea were excised, dissected and cut in 3-5 mm rings; from tissue; host or cells: thoracic aorta rings of adult Wistar rats, endothelium removed
T1 sequence (P26684 21-426): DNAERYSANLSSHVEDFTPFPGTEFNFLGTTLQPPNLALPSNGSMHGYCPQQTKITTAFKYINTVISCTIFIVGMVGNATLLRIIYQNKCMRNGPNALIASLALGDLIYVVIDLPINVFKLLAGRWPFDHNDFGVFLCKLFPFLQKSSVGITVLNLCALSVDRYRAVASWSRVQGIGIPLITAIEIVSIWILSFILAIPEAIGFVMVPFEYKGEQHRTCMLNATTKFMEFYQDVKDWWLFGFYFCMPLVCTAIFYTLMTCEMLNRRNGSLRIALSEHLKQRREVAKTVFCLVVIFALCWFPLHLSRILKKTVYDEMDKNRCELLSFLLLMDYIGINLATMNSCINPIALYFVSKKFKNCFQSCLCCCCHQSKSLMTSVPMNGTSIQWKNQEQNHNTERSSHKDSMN
The data set can be described thus: Inhibition of endothelin-1-induced contraction on isolated rat aortic rings. On the procedure: 2) Inhibition of Endothelin-Induced Contractions on Isolated Rat Aortic Rings (ETA Receptors) and Rat Tracheal Rings (ETB Receptors)
The functional inhibitory potency of the endothelin antagonists was assessed by their inhibition of the contraction induced by endothelin-1 on rat aortic rings (ETA receptors) and of the contraction induced by sarafotoxin S6c on rat tracheal rings (ETB receptors). Adult Wistar rats were anesthetized and exsanguinated. The thoracic aorta or trachea were excised, dissected and cut in 3-5 mm rings. The endothelium/epithelium was removed by gentle rubbing of the intimal surface. Each ring was suspended in a 10 mL isolated organ bath filled with Krebs-Henseleit solution (in mM; NaCl 115, KCl 4.7, MgSO4 1.2, KH2PO4 1.5, NaHCO3 25, CaCl2 2.5, glucose 10) kept at 37° C. and gassed with 95% O2 and 5% CO2. The rings were connected to force transducers and isometric tension was recorded (EMKA Technologies SA, Paris, France). The rings were stretched to a resting tension of 3 g (aorta) or 2 g (trachea). […] The functional inhibitory potency of the test compound was assessed by calculating the concentration ratio, i.e. the shift to the right of the EC50 induced by different concentrations of test compound. […]

Data set [1] can be described thus: Pharmacokinetics in the rat after single-dose oral administration. The format is in vivo. As to conditions: male Wistar rats, plasma; for half-life: oral gavage 10 mg/kg; for clearance: oral, 10 mg/kg. On the procedure:
Pharmacokinetics in the Rat After Single-Dose Oral Administration
Male Wistar rats with a body weight of 200-250 g were used for pharmacokinetic experiments after an acclimatization period of at least 7 days. All animals were housed under conditions in accordance with the NIH guidelines. Two days prior to the experiment, rats were anesthetized with a mixture of ketamin (90 mg/kg) and xylazine 2% (10 mg/kg) i.p. A catheter was implanted under aseptic conditions into the jugular vein to allow for multiple blood sampling. After recovery from general anesthesia, animals were housed individually under standard laboratory conditions in Makrolon type-3 cages with wire mesh tops and standardized softwood bedding. Animals had free access to water and food during the recovery period and the entire duration of the experiment.
Pharmacokinetic experiments were performed in Wistar rats (m=2-3) after jugular vein cannulation to allow for serial blood sampling. Test compounds were administered orally by gavage at doses of 10 mg/kg. Blood was then sampled at pre-defined time points over a period of 24 h and plasma prepared by centrifugation. Drug concentrations in plasma were quantified using liquid chromatography coupled to mass spectrometry (limit of quantification: 4.6 ng/mL). Pharmacokinetic evaluation was performed using non-compartmental analysis.

For data set [2], the target named is T2, human recombinant ETA receptors (Homo sapiens, UniProt P25101).
T2 construct: expressed in transfected cells; host or cells: CHO cells (microsomal membranes)
T2 sequence (P25101 21-427): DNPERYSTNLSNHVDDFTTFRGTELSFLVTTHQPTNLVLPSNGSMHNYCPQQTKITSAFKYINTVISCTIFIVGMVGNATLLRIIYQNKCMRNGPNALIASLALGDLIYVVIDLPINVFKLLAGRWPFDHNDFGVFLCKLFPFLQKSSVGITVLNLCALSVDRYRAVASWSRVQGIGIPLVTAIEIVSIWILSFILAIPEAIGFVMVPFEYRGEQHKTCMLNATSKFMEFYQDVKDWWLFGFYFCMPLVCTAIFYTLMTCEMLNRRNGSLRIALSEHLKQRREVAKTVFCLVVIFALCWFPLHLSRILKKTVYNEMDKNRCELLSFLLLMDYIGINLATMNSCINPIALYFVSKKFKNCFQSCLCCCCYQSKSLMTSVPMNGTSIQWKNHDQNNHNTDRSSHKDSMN
Briefly: Inhibition of endothelin binding to membranes from CHO cells carrying human ETA receptors. As for the experimental part:
1) Inhibition of Endothelin Binding to Membranes from CHO Cells Carrying Human ET Receptors
For competition binding studies, membranes of CHO cells expressing human recombinant ETA or ETB receptors were used.
All the test compounds were dissolved, diluted and added in DMSO.

Structures are written as SMILES.

The compound `NS(=O)(=O)Nc1ncnc(OCCOc2ncc(Br)cn2)c1-c1ccc(Br)cc1` [Compound of formula I, {5-(4-bromo-phenyl)-6-[2-(5-bromo-pyrimidin-2-yloxy)-ethoxy]-pyrimidin-4-yl}-sulfamide] had a Kb on ETA receptors of 200 nM. In data set [1], this compound had a half-life of 8.7 h and a clearance of 1.3 mL/min/kg. For the same compound, the half-maximal inhibitory concentration (IC50) in data set [2] is 3.7 nM.
For the compound `CCCNS(=O)(=O)Nc1ncnc(OCCOc2ncc(Br)cn2)c1-c1ccc(Br)cc1` [Reference Compound, Propylsulfamic acid [5(4 bromo-phenyl)-6-[2-(5-bromo-pyrimidin-2-yloxy)-ethoxy]-pyrimidin-4-yl]-amide, reference compound], in data set [1], the half-life is 2.8 to 4.2 h and the clearance lay in the range of 5.7 to 10 mL/min/kg.
